Experimental data taken from ChEMBL document CHEMBL5352447, “Development of [1,2]oxazoloisoindoles tubulin polymerization inhibitors: Further chemical modifications and potential therapeutic effects against lymphomas” (Eur J Med Chem, 2022).

How the values were obtained:
MDA-MB-468 = experiment: Antiproliferative activity against human MDA-MB-468 cells assessed as cell growth inhibition incubated for 72 hrs by MTT assay; format: functional
[1] = Antiproliferative activity against human MINO cells assessed as inhibition of cell proliferation incubated for 72 hrs by MTT assay; format: functional, cell-based
[2] = Antiproliferative activity against human HBL1 cells assessed as inhibition of cell proliferation incubated for 72 hrs by MTT assay; format: functional, cell-based; details: HBL1, 72 h
IGROV-1 = experiment: Antiproliferative activity against human IGROV-1 cells assessed as cell growth inhibition incubated for 72 hrs by MTT assay; format: functional
NCI-H460 = experiment: Antiproliferative activity against human NCI-H460 cells assessed as cell growth inhibition incubated for 72 hrs by MTT assay; format: functional
ACHN = experiment: Antiproliferative activity against human ACHN cells assessed as cell growth inhibition incubated for 72 hrs by MTT assay; format: functional
OVCAR-5 = experiment: Antiproliferative activity against human OVCAR-5 cells assessed as cell growth inhibition incubated for 72 hrs by MTT assay; format: functional
SNB-75 = experiment: Antiproliferative activity against human SNB-75 cells assessed as cell growth inhibition incubated for 72 hrs by MTT assay; format: functional
COLO 205 = experiment: Antiproliferative activity against human COLO 205 cells assessed as cell growth inhibition incubated for 72 hrs by MTT assay; format: functional
MDA-MB-231 = experiment: Antiproliferative activity against human MDA-MB-231 cells assessed as cell growth inhibition incubated for 72 hrs by MTT assay; format: functional
CCRF-CEM = experiment: Antiproliferative activity against human CCRF-CEM cells assessed as cell growth inhibition incubated for 72 hrs by MTT assay; format: functional
OVCAR-8 = experiment: Antiproliferative activity against human OVCAR-8 cells assessed as cell growth inhibition incubated for 72 hrs by MTT assay; format: functional
SU-DHL10 = experiment: Antiproliferative activity against human SU-DHL-10 cells assessed as inhibition of cell proliferation incubated for 72 hrs by MTT assay; format: functional, cell-based; details: SU-DHL10, 72 h
MCF7 = experiment: Antiproliferative activity against human MCF7 cells assessed as cell growth inhibition incubated for 72 hrs by MTT assay; format: functional
M14 = experiment: Antiproliferative activity against human M14 cells assessed as cell growth inhibition incubated for 72 hrs by MTT assay; format: functional
SK-OV-3 = experiment: Antiproliferative activity against human SK-OV-3 cells assessed as cell growth inhibition incubated for 72 hrs by MTT assay; format: functional
MDA-MB-435 = experiment: Antiproliferative activity against human MDA-MB-435 cells assessed as cell growth inhibition incubated for 72 hrs by MTT assay; format: functional
PC-3 = experiment: Antiproliferative activity against human PC-3 cells assessed as cell growth inhibition incubated for 72 hrs by MTT assay; format: functional
UACC-257 = experiment: Antiproliferative activity against human UACC-257 cells assessed as cell growth inhibition incubated for 72 hrs by MTT assay; format: functional
SNB-19 = experiment: Antiproliferative activity against human SNB-19 cells assessed as cell growth inhibition incubated for 72 hrs by MTT assay; format: functional
SF-295 = experiment: Antiproliferative activity against human SF-295 cells assessed as cell growth inhibition incubated for 72 hrs by MTT assay; format: functional
NCI/ADR-RES = experiment: Antiproliferative activity against human NCI-ADR-RES cells assessed as cell growth inhibition incubated for 72 hrs by MTT assay; format: functional
SK-MEL-5 = experiment: Antiproliferative activity against human SK-MEL-5 cells assessed as cell growth inhibition incubated for 72 hrs by MTT assay; format: functional
HOP-62 = experiment: Antiproliferative activity against human HOP-62 cells assessed as cell growth inhibition incubated for 72 hrs by MTT assay; format: functional
786-0 = experiment: Antiproliferative activity against human 786-0 cells assessed as cell growth inhibition incubated for 72 hrs by MTT assay; format: functional
SK-MEL-28 = experiment: Antiproliferative activity against human SK-MEL-28 cells assessed as cell growth inhibition incubated for 72 hrs by MTT assay; format: functional
OVCAR-4 = experiment: Antiproliferative activity against human OVCAR-4 cells assessed as cell growth inhibition incubated for 72 hrs by MTT assay; format: functional
[3] = Antiproliferative activity against human HBL1 cells assessed as proliferating cells at 1 uM incubated for 72 hrs by MTT assay relative to control; format: functional
VL51 [4] = experiment: Antiproliferative activity against human VL51 cells assessed as inhibition of cell proliferation incubated for 72 hrs by MTT assay; format: functional, cell-based; details: VL51, 72 h
VL51 [5] = experiment: Antiproliferative activity against human VL51 cells assessed as proliferating cells at 1 uM incubated for 72 hrs by MTT assay relative to control; format: functional
NCI-H23 = experiment: Antiproliferative activity against human NCI-H23 cells assessed as cell growth inhibition incubated for 72 hrs by MTT assay; format: functional
SN12C = experiment: Antiproliferative activity against human SN12C cells assessed as cell growth inhibition incubated for 72 hrs by MTT assay; format: functional
RPMI-8226 = experiment: Antiproliferative activity against human RPMI-8226 cells assessed as cell growth inhibition incubated for 72 hrs by MTT assay; format: functional
Hs-578T = experiment: Antiproliferative activity against human Hs-578T cells assessed as cell growth inhibition incubated for 72 hrs by MTT assay; format: functional
SK-MEL-2 = experiment: Antiproliferative activity against human SK-MEL-2 cells assessed as cell growth inhibition incubated for 72 hrs by MTT assay; format: functional
KM12 = experiment: Antiproliferative activity against human KM12 cells assessed as cell growth inhibition incubated for 72 hrs by MTT assay; format: functional
BT-549 = experiment: Antiproliferative activity against human BT-549 cells assessed as cell growth inhibition incubated for 72 hrs by MTT assay; format: functional
DU-145 = experiment: Antiproliferative activity against human DU-145 cells assessed as cell growth inhibition incubated for 72 hrs by MTT assay; format: functional
NCI-H322M = experiment: Antiproliferative activity against human NCI-H322M cells assessed as cell growth inhibition incubated for 72 hrs by MTT assay; format: functional
HCT-116 = experiment: Antiproliferative activity against human HCT-116 cells assessed as cell growth inhibition incubated for 72 hrs by MTT assay; format: functional
SR = experiment: Antiproliferative activity against human SR cells assessed as cell growth inhibition incubated for 72 hrs by MTT assay; format: functional
Malme-3M = experiment: Antiproliferative activity against human Malme-3M cells assessed as cell growth inhibition incubated for 72 hrs by MTT assay; format: functional
UO-31 = experiment: Antiproliferative activity against human UO-31 cells assessed as cell growth inhibition incubated for 72 hrs by MTT assay; format: functional
[6] = Antiproliferative activity against human MINO cells assessed as proliferating cells at 1 uM incubated for 72 hrs by MTT assay relative to control; format: functional
NCI-H522 = experiment: Antiproliferative activity against human NCI-H522 cells assessed as cell growth inhibition incubated for 72 hrs by MTT assay; format: functional
A498 = experiment: Antiproliferative activity against human A498 cells assessed as cell growth inhibition incubated for 72 hrs by MTT assay; format: functional
LOX IMVI = experiment: Antiproliferative activity against human LOX IMVI cells assessed as cell growth inhibition incubated for 72 hrs by MTT assay; format: functional

COc1ccc(Cn2cc3c(c2-c2cc(OC)c(OC)c(OC)c2)CCc2c(CN4CCCC4)noc2-3)cc1
GI50 (MDA-MB-468): 280 nM | IC50 [1]: 500 nM | IC50 [2]: 600 nM | GI50 (IGROV-1): 890 nM | GI50 (NCI-H460): 570 nM | GI50 (ACHN): 630 nM | GI50 (OVCAR-5): 3.2 µM | GI50 (SNB-75): 670 nM | GI50 (COLO 205): 940 nM | GI50 (MDA-MB-231): 3050 nM | GI50 (CCRF-CEM): 730 nM | GI50 (OVCAR-8): 3.27 µM | IC50 (SU-DHL10): 700 nM | GI50 (MCF7): 330 nM | GI50 (M14): 580 nM | GI50 (SK-OV-3): 6.7 µM | GI50 (MDA-MB-435): 240 nM | GI50 (PC-3): 640 nM | GI50 (UACC-257): 17 µM | GI50 (SNB-19): 780 nM | GI50 (SF-295): 460 nM | GI50 (NCI/ADR-RES): 550 nM | GI50 (SK-MEL-5): 1020 nM | GI50 (HOP-62): 1000 nM | GI50 (786-0): 1000 nM | GI50 (SK-MEL-28): 11.5 µM | GI50 (OVCAR-4): 21.4 µM | Activity [3]: 30.6% | IC50 (VL51 [4]): 150 nM | Activity (VL51 [5]): 57% | GI50 (NCI-H23): 2800 nM | GI50 (SN12C): 4.43 µM | GI50 (RPMI-8226): 1270 nM | GI50 (Hs-578T): 1800 nM | GI50 (SK-MEL-2): 13.2 µM | GI50 (KM12): 12.6 µM | GI50 (BT-549): 2470 nM | GI50 (DU-145): 4 µM | GI50 (NCI-H322M): 5.55 µM | GI50 (HCT-116): 470 nM | GI50 (SR): 360 nM | GI50 (Malme-3M): 500 nM | GI50 (UO-31): 1160 nM | Activity [6]: 8.7% | GI50 (NCI-H522): 470 nM | GI50 (A498): 780 nM

CCOC(=O)c1noc2c1CCc1c-2cn(Cc2ccc(OC)cc2)c1-c1cc(OC)c(OC)c(OC)c1
GI50 (MDA-MB-468): 5620 nM | IC50 [1]: 1400 nM | IC50 [2]: 1700 nM | GI50 (IGROV-1): 2450 nM | GI50 (NCI-H460): 1000 nM | GI50 (ACHN): 3510 nM | GI50 (OVCAR-5): 4.72 µM | GI50 (SNB-75): 3650 nM | GI50 (COLO 205): 1770 nM | GI50 (MDA-MB-231): 2700 nM | GI50 (LOX IMVI): 650 nM | GI50 (CCRF-CEM): 1040 nM | GI50 (OVCAR-8): 3.04 µM | IC50 (SU-DHL10): 2000 nM | GI50 (MCF7): 350 nM | GI50 (M14): 410 nM | GI50 (SK-OV-3): 5.23 µM | GI50 (MDA-MB-435): 570 nM | GI50 (PC-3): 2900 nM | GI50 (UACC-257): 85.8 µM | GI50 (SNB-19): 670 nM | GI50 (SF-295): 3020 nM | GI50 (NCI/ADR-RES): 3520 nM | GI50 (SK-MEL-5): 490 nM | GI50 (HOP-62): 3000 nM | GI50 (786-0): 3650 nM | GI50 (SK-MEL-28): 1.9 µM | GI50 (OVCAR-4): 20.5 µM | Activity [3]: 70.1% | IC50 (VL51 [4]): 1800 nM | Activity (VL51 [5]): 79.7% | GI50 (NCI-H23): 3040 nM | GI50 (SN12C): 3.92 µM | GI50 (RPMI-8226): 2850 nM | GI50 (Hs-578T): 2990 nM | GI50 (SK-MEL-2): 4.29 µM | GI50 (KM12): 0.91 µM | GI50 (BT-549): 1470 nM | GI50 (DU-145): 2.32 µM | GI50 (NCI-H322M): 5.46 µM | GI50 (HCT-116): 400 nM | GI50 (SR): 2090 nM | GI50 (UO-31): 3440 nM | Activity [6]: 41.3% | GI50 (NCI-H522): 370 nM | GI50 (A498): 2770 nM
